Experimental data published in patent EP0791591B1, “Benzothiophenes, formulations containing same, and methods for their préparation” (ELI LILLY AND COMPANY, priority 1996, dated 1997).
Like-named read-outs stand apart in the source and are kept apart here. Marks after values point to notes of the source that are not given here. Blank lines part the entries; values can stand above or below the molecule they belong to.

Assays:
Serum cholesterol = Serum cholesterol analysis in ovariectomized rats; assay type: in vivo, Sprague Dawley rats; conditions: oral, daily for 4 days, decrease versus ovariectomized controls
Excerpt: (§1) Seventy-five day old female Sprague Dawley rats (weight range of 200 to 225g) are obtained from Charles River Laboratories (Portage, MI). The animals are either bilaterally ovariectomized (OVX) or exposed to a Sham surgical procedure at Charles River Laboratories, and then shipped after one week. Upon arrival, they are housed in metal hanging cages in groups of 3 or 4 per cage and have ad libitum access to food (calcium content approximately 0.5%) and water for one week. Room temperature is maintained at 22.2° ± 1.7° C with a minimum relative humidity of 40%. The photoperiod in the room is 12 hours light and 12 hours dark.
(§2) Dosing Regimen Tissue Collection. After a one week acclimation period (therefore, two weeks post-OVX) daily dosing with test compound is initiated. 17α-ethynyl estradiol or the test compound is given orally, unless otherwise stated, as a suspension in 1% carboxymethylcellulose or dissolved in 20% cyclodextrin. Animals were dosed daily for 4 days. Following the dosing regimen, animals are weighed and anesthetized with a ketamine: Xylazine (2:1, V:V) mixture and a blood sample is collected by cardiac puncture. The animals are then sacrificed by asphyxiation with CO2, the uterus is removed through a midline incision, and a wet uterine weight is determined.
Cholesterol Analysis. Blood samples are allowed to clot at room temperature for 2 hours, and serum is obtained following centrifugation for 10 minutes at 3000 rpm. Serum cholesterol is determined using a Boehringer Mannheim Diagnostics high performance cholesterol assay. Briefly the cholesterol is oxidized to cholest-4-en-3-one and hydrogen peroxide. The hydrogen peroxide is then reacted with phenol and 4-aminophenazone in the presence of peroxidase to produce a p-quinone imine dye, which is read spectrophotemetrically at 500 nm. Cholesterol concentration is then calculated against a standard curve. The entire assay is automated using a Biomek Automated Workstation.

[1] = system: Uterine Eosinophil Peroxidase (EPO); conditions: rat, in vivo
Excerpt: as §1, §2
(§3) Uterine Eosinophil Peroxidase (EPO) Assay. Uteri are kept at 4° C until time of enzymatic analysis. The uteri are then homogenized in 50 volumes of 50 mM Tris buffer (pH - 8.0) containing 0.005% Triton X-100. Upon addition of 0.01% hydrogen peroxide and 10 mM O-phenylenediamine (final concentrations) in Tris buffer, increase in absorbance is monitored for one minute at 450 nm. The presence of eosonophils in the uterus is an indication of estrogenic activity of a compound. The maximal velocity of a 15 second interval is determined over the initial, linear portion of the reaction curve.

physchem = conditions: 66% dmf
[2] = system: MCF-7 breast adenocarcinoma cells (ATCC HTB 22); assay: MCF-7 Proliferation Assay (tritiated thymidine); assay type: cell-based; conditions: Homo sapiens, MCF7; MCF-7 cells, 48 hours with drug, tritiated thymidine pulse 4 hours
Experimental: MCF-7 breast adenocarcinoma cells (ATCC HTB 22) are maintained in MEM (minimal essential medium, phenol red-free, Sigma, St. Louis, MO) supplemented with 10% fetal bovine serum (FBS) (V/V), L-glutamine (2 mM), sodium pyruvate (1 mM), HEPES {(N-[2-hydroxyethyl]piperazine-N'-[2-ethanesulfonic acid]10 mM}, non-essential amino acids and bovine insulin (1 ug/mL) (maintenance medium). Ten days prior to assay, MCF-7 cells are switched to maintenance medium supplemented with 10% dextran coated charcoal stripped fetal bovine serum (DCC-FBS) assay medium) in place of 10% FBS to deplete internal stores of steroids. MCF-7 cells are removed from maintenance flasks using cell.dissociation medium (Ca++/Mg++ free HBSS (phenol red-free) supplemented with 10 mM HEPES and 2 mM EDTA). Cells are washed twice with assay medium and adjusted to 80,000 cells/mL. Approximately 100 µL (8,000 cells) are added to flat-bottom microculture wells (Costar 3596) and incubated at 37° C in a 5% CO2 humidified incubator for 48 hours to allow for cell adherence and equilibration after transfer. Serial dilutions of drugs or DMSO as a diluent control are prepared in assay medium and 50 µL transferred to triplicate microcultures followed by 50 µL assay medium for a final volume of 200 µL. […] Samples are counted by liquid scintillation using a Wallac BetaPlace β counter. […]

[3] = system: Uterine Eosinophil Peroxidase (EPO); assay: Uterine Eosinophil Peroxidase (EPO) Assay in ovariectomized rats; conditions: for Uterine Eosinophil (Vmax): oral, daily for 4 days, eosinophil peroxidase Vmax
Excerpt: as §1, §2, §3

ovariectomized rats [4] = assay: Uterine weight in ovariectomized rat post-menopausal model, 4 days oral dosing; conditions: daily for 4 days, increase versus ovariectomized controls
Excerpt: as §1, §2

ovariectomized rats [5] = assay: Osteoporosis Test Procedure: 35-day ovariectomized rat, femur density; assay type: in vivo, Sprague Dawley rats; conditions: oral, in 20% hydroxypropyl β-cyclodextrin, daily for 35 days; result in words
Experimental: Following the General Preparation Procedure, infra, the rats are treated daily for 35 days (6 rats per treatment group) and sacrificed by carbon dioxide asphyxiation on the 36th day. The 35 day time period is sufficient to allow maximal reduction in bone density, measured as described herein. At the time of sacrifice, the uteri are removed, dissected free of extraneous tissue, and the fluid contents are expelled before determination of wet weight in order to confirm estrogen deficiency associated with complete ovariectomy. […] The uteri are then placed in 10% neutral buffered formalin to allow for subsequent histological analysis. The right femurs are excised and digitilized x-rays generated and analyzed by an image analysis program (NIH image) at the distal metaphysis. The proximal aspect of the tibiae from these animals are also scanned by quantitative computed tomography. In accordance with the above procedures, compounds of the present invention and ethynyl estradiol (EE2) in 20% hydroxypropyl β-cyclodextrin are orally administered to test animals.

pKa (pKa determination): 6.49
Molecule: [O-][N+]1(CCOc2ccc(Cc3c(-c4ccc(O)cc4)sc4cc(O)ccc34)cc2)CCCCC1 [Example 7, [2-(4-Hydroxyphenyl)-6-hydroxybenzo[b]thien-3-yl][4-[2-(1-piperidinyl)ethoxy]phenyl]methane N-oxide]

Uterine Eosinophil (Vmax) [1]: 21.7*
pKa (physchem): 6.15
Molecule: CC[N+]([O-])(CC)CCOc1ccc(C(=O)c2c(-c3ccc(O)cc3)sc3cc(O)ccc23)cc1 [Example 3, [2-(4-Hydroxyphenyl)-6-hydroxybenzo[b]thien-3-yl][4-[2-(N, N-diethyl)ethoxy]phenyl]methanone N-oxide]
Serum Cholest. % Dec. (Serum cholesterol; 1.0 mg/kg): 64.2* %

Uterine Eosinophil (Vmax) [1]: 11.2
pKa (physchem): 6.39
Molecule: COc1ccc(-c2sc3cc(OC)ccc3c2C(=O)c2ccc(OCC[N+]3([O-])CCCCC3)cc2)cc1 [Example 2]
Serum Cholest. % Dec. (Serum cholesterol; 1.0 mg/kg): 65.7* %

Uterine Eosinophil (Vmax) [1]: 4.7
Molecule: [2-(4-n-Butylsulfonoylphenyl)-6-n-butylsulfonoylbenzo[b]thien-3-yl][4-[2-(1-piperidinyl)ethoxy]phenyl]methanone N-oxide [Example 5]
Serum Cholest. % Dec. (Serum cholesterol; 1.0 mg/kg): 74.9* %

Uterine Eosinophil (Vmax) ([3]; 0.1 mg/kg): 205.8*
eosinophil infiltration into the uterus ([3]; result in words, stromal layer of ovariectomized rat uteri): substantial and expected increase
Uterine Weight % Inc (ovariectomized rats [4]; 0.1 mg/kg): 207.5* %
Molecule: C#C[C@]1(O)CC[C@H]2[C@@H]3CCc4cc(O)ccc4[C@H]3CC[C@@]21C [EE2, 17α-ethynyl estradiol, reference compound]
Serum Cholest. % Dec. (Serum cholesterol; 0.1 mg/kg): 87.3* %
bone loss (femur density) (ovariectomized rats [5]): prevented this loss

Second part, the molecule before the results:

Molecule: [O-][N+]1(CCOc2ccc(C(O)c3c(-c4ccc(O)cc4)sc4cc(O)ccc34)cc2)CCCCC1 (stereo not shown) [Example 6]
pKa (pKa determination): 6.41

Molecule: O=C(c1ccc(OCC[N+]2([O-])CCOCC2)cc1)c1c(-c2ccc(O)cc2)sc2cc(O)ccc12 [Example 4, [2-(4-Hydroxyphenyl)-6-hydroxybenzo[b]thien-3-yl][4-[2-(1-morpholino)ethoxy]phenyl]methanone N-oxide]
Serum Cholest. % Dec. (Serum cholesterol; 1.0 mg/kg): 56.2* %
Uterine Eosinophil (Vmax) [1]: 4.1

Molecule: O=C(c1ccc(OCC[N+]2([O-])CCCCC2)cc1)c1c(-c2ccc(O)cc2)sc2cc(O)ccc12 [Example 1, [2-(4-Hydroxyphenyl)-6-hydroxybenzo[b]thien-3-yl][4-[2-(1-piperidinyl)ethoxy]phenyl]methanone N-oxide]
Serum Cholest. % Dec. (Serum cholesterol; 0.1 mg/kg): 44.9* %
Serum Cholest. % Dec. (Serum cholesterol; 1.0 mg/kg): 68.7* %
Serum Cholest. % Dec. (Serum cholesterol; 10.0 mg/kg): 70.3* %
IC50 [2]: ~1000 nM
pKa (pKa determination; 66% dmf): 6.28
Uterine Eosinophil (Vmax) ([3]; 0.1 mg/kg): 4.4
Uterine Eosinophil (Vmax) ([3]; 1.0 mg/kg): 4.6
Uterine Eosinophil (Vmax) ([3]; 10.0 mg/kg): 2.5
Uterine Weight % Inc (ovariectomized rats [4]; 0.1 mg/kg): 31.2* %
Uterine Weight % Inc (ovariectomized rats [4]; 1.0 mg/kg): 29.6* %
Uterine Weight % Inc (ovariectomized rats [4]; 10.0 mg/kg): 8.3%
